In patent EP0372603A2, “Antibacterial oral composition” (Colgate-Palmolive Company, priority 1988, dated 1990):

Columns and labels:
[1] = In vitro stain retention on hydroxyapatite (bovine serum albumin/acetaldehyde browning model); settings: 0.12, 0.25 and 1.0% of aminoguanidine gluconate with 0.12% CHX
Protocol: The following in vitro method correlates with and simulates the reaction whereby hydroxyapatite tooth mineral material is stained brown:
2.0 g hydroxyapatite (HAP), 10 ml of 25% Bovine Serum Albumin in 0.1M phosphate buffer (pH 7.0), 2.5 ml of 0.1M phosphate buffer containing mono-basic and di-basic sodium orthophosphate (pH 7), 25.0 ml of a test sample and 12.5 ml of 30% buffered acetaldehyde (pH 7) are mixed for 24 hrs. at 37 °C. The HAP is filtered and dried at 37 °C. The color retained on the HAP powder is qualified with a Gardner Color Difference Meter.

[2] = test system: Actinomyces viscosus cells; assay: Antibacterial effect: full strength rinses exposed to cells for 60 seconds, CFU count; format: cell-based
Protocol: The antibacterial effect of chlorhexidine in the presence of aminoguanidine is determined by exposing the following full strength rinses to Actinomyces viscosus cells for 60 seconds.

[3] = test system: in vitro plaque which is formed by Actinomyces viscosus and strep mutans on extracted human teeth; assay: Antiplaque effect on in vitro plaque on extracted human teeth (visual score and erythrosine dye extraction); format: cell-based
Protocol: The antiplaque effect of chlorhexidine in the presence of aminoguanidine is determined by rinsing in vitro plaque which is formed by Actinomyces viscosus and strep mutans on extracted human teeth for 30 seconds once per day for three days with the full strength rinses below. The plaque growth is induced on teeth by daily transferring the teeth to an inoculated fresh medium (tryptocase soy broth). The amount of plaque is scored visually as well as after disclosing with erythrosine dye. The dye is then extracted with ethanol. The amount of the dye adsorbed is directly proportional to the amount of the plaque on teeth. The dye concentration is measured spectrophotometrically at wavelength 533nm.

[4] = Gingivitis/plaque/stain evaluation in monkeys sprayed with rinse once daily for 6 weeks; format: in vivo, squirrel monkeys; set-up: key to Final Gingival Index: 0 = clinically normal gingiva to 4 = obvious redness with bleeding; Initial Stain Index / Final Stain Index: scale not given here; settings: for Final Gingival Index: once daily spray 30 seconds; for Initial Gingival Index: baseline before treatment, scale 0-4; for Initial Plaque Index: modified Quigley-Hein index
Protocol: Adult squirrel monkeys are prepared for a gingivitis/plaque/stain evaluation including thorough prophylaxis. 36 surfaces (maxillary and mandibular; mesial, buccal and distal) are initially evaluated for plaque by a modified Quigley-Hein index and gingival inflation by the following scale: 0 - clinically normal; pink, form, knife-like gingival margin, triangular interdental papilla; 1 - change in the form of gingiva; gingival margin may be slightlyenlarged, no longer knife-like and firm, no color change; 2 - slight color change of marginal gingiva of interdental papilla, discrete areas of redness at most cornal surfaces of the free gingiva; 3- obvious color change in marginal gingiva or interdental papilla, no bleeding on probing; 4 - obvious color change; redness obvious; in addition, bleeding on probing or spontaneous bleeding.
The squirrel monkeys are then divided into 3 groups of four and each is treated in a double blind manner once daily for 6 weeks. All dentitions are sprayed for 30 seconds from polyethylene bottles containing rinse solution.
Initial and 6 week evaluations for three studies for plaque formation and gingival inflamation and 6 week evaluations for stain (indicate general protocol) follow, with stain TABLE 4

Compound	chlorhexidine induced stain (in words) [1]	antibacterial effect (in words) ([2]; 0.25% Aminoguanidine alone)	effect on antibacterial activity of chlorhexidine (in words) ([2]; 0.25% Aminoguanidine with CHX)	antiplaque activity (in words) ([3]; 0.25% Aminoguanidine alone)	effect on antiplaque activity of chlorhexidine (in words) ([3]; 0.25% Aminoguanidine with CHX)	Final Plaque Index ([4]; Study A, after 6 weeks)	Final Gingival Index ([4]; Study A, after 6 weeks)	Initial Gingival Index ([4]; Study A)	Initial Plaque Index ([4]; Study A, baseline)	Final Plaque Index ([4]; Study B, after 6 weeks)	Final Stain Index ([4]; Study B, after 6 weeks)	Final Gingival Index ([4]; Study B, after 6 weeks)	Initial Stain Index ([4]; Study B, baseline)	Initial Gingival Index ([4]; Study B)	Initial Plaque Index ([4]; Study B, baseline)	Final Plaque Index ([4]; Study C, after 6 weeks)	Final Gingival Index ([4]; Study C, after 6 weeks)	Initial Gingival Index ([4]; Study C)	Initial Plaque Index ([4]; Study C, baseline)
N=C(N)NN [Aminoguanidine, Hydrazine Carboximidamide (aminoguanidine)]	reduces the chlorhexidine induced stain at least to about the level of the placebo	no antibacterial effect	does not compromise antibacterial activity of chlorhexidine	no antiplaque activity	does not compromise the antiplaque activity of chlorhexidine	–	–	–	–	–	–	–	–	–	–	–	–	–	–
[H]/N=C(\N/C(=N/[H])NCCCCCCNC(=N)NC(=N)Nc1ccc(Cl)cc1)Nc1ccc(Cl)cc1 [CHX, chlorhexidine gluconate]	–	–	–	–	–	1.24	0.49	0.43	0.55	0.47	0.62	0.47	0.01	0.54	0.15	0.83	0.63	0.56	0.53
